Our source for the pest or weed control and inhibition of growth values is US10501425B2, “Microbiocidal oxadiazole derivatives” (SYNGENTA PARTICIPATIONS AG, priority 2015, dated 2019).

For experiment [1], the system named is Puccinia recondita f. Sp. Tritici. In words: Puccinia recondita f. sp. tritici / wheat / leaf disc curative (brown rust). The note with it: foliar, 24 h, 200 ppm in the applied formulation, wheat leaf segments cv. Kanzler, curative (applied 1 day after inoculation), compared to untreated, read-out: disease control. It counts as in vivo. The protocol:
(§1) Leaf disks or leaf segments of various plant species are cut from plants grown in a greenhouse. The cut leaf disks or segments are placed in multiwell plates (24-well format) onto water agar. The leaf disks are sprayed with a test solution before (preventative) or after (curative) inoculation. Compounds to be tested are prepared as DMSO solutions (max. 10 mg/ml) which are diluted to the appropriate concentration with 0.025% Tween20 just before spraying. The inoculated leaf disks or segments are incubated under defined conditions (temperature, relative humidity, light, etc.) according to the respective test system. A single evaluation of disease level is carried out 3 to 14 days after inoculation, depending on the pathosystem. Percent disease control relative to the untreated check leaf disks or segments is then calculated.
Wheat leaf segments cv. Kanzler are placed on agar in multiwell plates (24-well format). The leaf segments are then inoculated with a spore suspension of the fungus. Plates were stored in darkness at 19° C. and 75% relative humidity. The formulated test compound diluted in water was applied 1 day after inoculation. The leaf segments were incubated at 19° C. and 75% relative humidity under a light regime of 12 hours light/12 hours darkness in a climate cabinet and the activity of a compound was assessed as percent disease control compared to untreated when an appropriate level of disease damage appears in untreated check leaf segments (6 to 8 days after application).
The following compounds at 200 ppm in the applied formulation give at least 80% disease control in this test when compared to untreated control leaf disks under the same conditions, which show extensive disease development.

The test system is the same in experiment [2]. In words: Puccinia recondita f. sp. tritici / wheat / leaf disc preventative (brown rust). It counts as in vivo. The note with it: foliar, 200 ppm in the applied formulation, wheat leaf segments cv. Kanzler, preventative (inoculated 1 day after application), compared to untreated, read-out: disease control. As to the method:
as §1, with “calculated. Wheat leaf segments cv. Kanzler were placed on agar in multiwell plates (24-well format) and sprayed with the formulated test compound diluted in water. The leaf disks were inoculated with a spore suspension of the fungus 1 day after application. The inoculated leaf segments were incubated at 19° C. and 75% relative humidity (rh) under a light regime of 12 hours light/12 hours darkness in a climate cabinet and the activity of a compound was assessed as percent disease control compared to untreated when an appropriate level of disease damage appears in untreated check leaf segments (7 to 9 days after application). The following compounds at 200 ppm in the applied formulation give at least 80% disease control in this test when compared to untreated control leaf disks under the same conditions, which show extensive disease development.” for “calculated.”

Experiment [3] relates to Glomerella lacenarium (Colletotrichum lagenarium). In words: Glomerella lagenarium liquid culture / cucumber / preventative (anthracnose). The note with it: Colletotrichum orbiculare; 20 ppm in the applied formulation; liquid culture (PDB), growth inhibition measured photometrically 3 to 4 days after application; compared to untreated; read-out: disease control. The class given is cell-based. As to the method:
Mycelia fragments or conidia suspensions of a fungus prepared either freshly from liquid cultures of the fungus or from cryogenic storage, are directly mixed into nutrient broth. DMSO solutions of the test compound (max. 10 mg/ml) are diluted with 0.025% Tween20 by a factor of 50 and 10 μl of this solution is pipetted into a microtiter plate (96-well format). The nutrient broth containing the fungal spores/mycelia fragments is then added to give an end concentration of the tested compound. The test plates are incubated in the dark at 24° C. and 96% relative humidity. The inhibition of fungal growth is determined photometrically after 2 to 7 days, depending on the pathosystem, and percent antifungal activity relative to the untreated check is calculated.
Conidia of the fungus from cryogenic storage are directly mixed into nutrient broth (PDB—potato dextrose broth). After placing a (DMSO) solution of test compound into a microtiter plate (96-well format), the nutrient broth containing the fungal spores is added.
The following compounds at 20 ppm in the applied formulation give at least 80% disease control in this test when compared to untreated control under the same conditions, which show extensive disease development.

Consider `COCCC(=O)NCc1ccc(-c2noc(C(F)(F)F)n2)cc1F` [Compound 1.37, N-[[2-fluoro-4-[5-(trifluoromethyl)-1,2,4-oxadiazol-3-yl]phenyl]methyl]-3-methoxy-propanamide], for which the pest or weed control at 200 ppm in experiment [1] and in experiment [2] was at least 80% throughout. Besides, in experiment [3], the inhibition of growth at 20 ppm is at least 80%.
Consider `COCCCC(=O)NCc1ccc(-c2noc(C(F)(F)F)n2)c(F)c1` [Compound 1.40, N-[[3-fluoro-4-[5-(trifluoromethyl)-1,2,4-oxadiazol-3-yl]phenyl]methyl]-4-methoxy-butanamide], for which the pest or weed control at 200 ppm in experiment [1] and in experiment [2] was at least 80% throughout. Further, the inhibition of growth at 20 ppm in experiment [3] was at least 80%.
Consider `COCCCC(=O)NCc1ccc(-c2noc(C(F)(F)F)n2)cc1F` [Compound 1.42, N-[[2-fluoro-4-[5-(trifluoromethyl)-1,2,4-oxadiazol-3-yl]phenyl]methyl]-4-methoxy-butanamide], for which the pest or weed control at 200 ppm in experiment [1] and in experiment [2] was at least 80% throughout. The inhibition of growth at 20 ppm in experiment [3] is at least 80%.
Regarding `N#CCC(=O)NCc1ccc(-c2noc(C(F)(F)F)n2)c(F)c1` [Compound 1.43, 2-cyano-N-[[3-fluoro-4-[5-(trifluoromethyl)-1,2,4-oxadiazol-3-yl]phenyl]methyl]acetamide], the pest or weed control at 200 ppm in experiment [1] and in experiment [2] was at least 80% throughout. Also, the inhibition of growth at 20 ppm in experiment [3] was at least 80%.
On to `N#CCC(=O)NCc1ccc(-c2noc(C(F)(F)F)n2)cc1F` [Compound 1.45, 2-cyano-N-[[2-fluoro-4-[5-(trifluoromethyl)-1,2,4-oxadiazol-3-yl]phenyl]methyl]acetamide], for which the pest or weed control at 200 ppm in experiment [1] and in experiment [2] was at least 80% each time. Further, the inhibition of growth at 20 ppm in experiment [3] was at least 80%.
For the compound `CC(C)C(=O)NCc1ccc(-c2noc(C(F)(F)F)n2)cc1Cl` [Compound 1.50, N-[[2-chloro-4-[5-(trifluoromethyl)-1,2,4-oxadiazol-3-yl]phenyl]methyl]-2-methyl-propanamide], the inhibition of growth at 20 ppm in experiment [3] is at least 80%.
Still for that read-out and setting: to `CCCC(=O)NCc1ccc(-c2noc(C(F)(F)F)n2)cc1Cl` [Compound 1.52, N-[[2-chloro-4-[5-(trifiuoromethyl)-1,2,4-oxadiazol-3-yl]phenyl]methyl]butanamide] belongs at least 80%.
In the case of `COCCC(=O)NCc1ccc(-c2noc(C(F)(F)F)n2)c(F)c1F` [Compound 1.53, N-[[2,3-difluoro-4-[5-(trifluoromethyl)-1,2,4-oxadiazol-3-yl]phenyl]methyl]-3-methoxy-propanamide], the pest or weed control at 200 ppm in experiment [1] and in experiment [2] was at least 80% throughout. Besides, the inhibition of growth at 20 ppm in experiment [3] is at least 80%.
As to `COCCC(=O)NCc1ccc(-c2noc(C(F)(F)F)n2)cc1Cl` [Compound 1.55, N-[[2-chloro-4-[5-(trifluoromethyl)-1,2,4-oxadiazol-3-yl]phenyl]methyl]-3-methoxy-propanamide], the inhibition of growth at 20 ppm in experiment [3] was at least 80%.
Consider `COCC(=O)NCc1ccc(-c2noc(C(F)(F)F)n2)cc1Cl` [Compound 1.57, N-[[2-chloro-4-[5-(trifluoromethyl)-1,2,4-oxadiazol-3-yl]phenyl]methyl]-2-methoxy-acetamide], for which, in experiment [1], the pest or weed control at 200 ppm was at least 80%. In addition, the inhibition of growth at 20 ppm in experiment [3] was at least 80%.
In the case of `CCC(C)C(=O)NCc1ccc(-c2noc(C(F)(F)F)n2)cc1Cl` (stereo not shown) [Compound 1.58, N-[[2-chloro-4-[5-(trifluoromethyl)-1,2,4-oxadiazol-3-yl]phenyl]methyl]-2-methyl-butanamide], the inhibition of growth at 20 ppm in experiment [3] is at least 80%.
Consider `COCCCC(=O)NCc1ccc(-c2noc(C(F)(F)F)n2)cc1Cl` [Compound 1.60, N-[[2-chloro-4-[5-(trifluoromethyl)-1,2,4-oxadiazol-3-yl]phenyl]methyl]-4-methoxy-butanamide], for which the pest or weed control at 200 ppm in experiment [1] and in experiment [2] was at least 80% each time. Further, the inhibition of growth at 20 ppm in experiment [3] was at least 80%.
Consider `COCCCC(=O)NCc1ccc(-c2noc(C(F)(F)F)n2)c(F)c1F` [Compound 1.61, N-[[2,3-difluoro-4-[5-(trifluoromethyl)-1,2,4-oxadiazol-3-yl]phenyl]methyl]-4-methoxy-butanamide], for which the pest or weed control at 200 ppm in experiment [1] and in experiment [2] was at least 80% in each case. In addition, in experiment [3], the inhibition of growth at 20 ppm was at least 80%.
As to `CC(=O)NCc1ccc(-c2noc(C(F)(F)F)n2)cc1Cl` [Compound 1.64, N-[[2-chloro-4-[5-(trifluoromethyl)-1,2,4-oxadiazol-3-yl]phenyl]methyl]acetamide], the pest or weed control at 200 ppm in experiment [2] was at least 80%. The inhibition of growth at 20 ppm in experiment [3] is at least 80%.
Regarding `COCC(=O)NCc1ccc(-c2noc(C(F)(F)F)n2)cc1C(F)(F)F` [Compound 1.70, 2-methoxy-N-[[2-(trifluoromethyl)-4-[5-(trifiuoromethyl)-1,2,4-oxadiazol-3-yl]phenyl]methyl]acetamide], the inhibition of growth at 20 ppm in experiment [3] was at least 80%.
Turning to `N#CCC(=O)NCc1ccc(-c2noc(C(F)(F)F)n2)cn1` [Compound 1.73, 2-cyano-N-[[5-[5-(trifluoromethyl)-1,2,4-oxadiazol-3-yl]-2-pyridyl]methyl]acetamide], in experiment [1], the pest or weed control at 200 ppm is at least 80%. Also, the inhibition of growth at 20 ppm in experiment [3] was at least 80%.
For `CCCCCOC(=O)NCc1ccc(-c2noc(C(F)(F)F)n2)cc1` [Compound 2.9, pentyl N-[[4-[5-(trifluoromethyl)-1,2,4-oxadiazol-3-yl]phenyl]methyl]carbamate], in experiment [2], the pest or weed control at 200 ppm was at least 80%.
For the compound `CCCCCOC(=O)NCc1ccc(-c2noc(C(F)(F)F)n2)cn1` [Compound 2.23, pentyl N-[[5-[5-(trifluoromethyl)-1,2,4-oxadiazol-3-yl]-2-pyridyl]methyl]carbamate], the pest or weed control at 200 ppm in experiment [2] was at least 80%. For the same compound, in experiment [3], the inhibition of growth at 20 ppm is at least 80%.
On to `CC(C)(C)COC(=O)NCc1ccc(-c2noc(C(F)(F)F)n2)cn1` [Compound 2.34, 2,2-dimethylpropyl N-[[5-[5-(trifluoromethyl)-1,2,4-oxadiazol-3-yl]-2-pyridyl]methyl]carbamate], for which the pest or weed control at 200 ppm in experiment [1] was at least 80%. In experiment [3], the inhibition of growth at 20 ppm was at least 80%.
Regarding `CC(C)(C)CNC(=O)NCc1ccc(-c2noc(C(F)(F)F)n2)cc1` [Compound 3.8, 1-(2,2-dimethylpropyl)-3-[[4-[5-(trifluoromethyl)-1,2,4-oxadiazol-3-yl]phenyl]methyl]urea], the pest or weed control at 200 ppm in experiment [2] was at least 80%.
Regarding `CC(C)CNC(=O)NCc1ccc(-c2noc(C(F)(F)F)n2)cc1` [Compound 3.11, 1-isobutyl-3-[[4-[5-(trifluoromethyl)-1,2,4-oxadiazol-3-yl]phenyl]methyl]urea], the pest or weed control at 200 ppm in experiment [2] is at least 80%. For the same compound, the inhibition of growth at 20 ppm in experiment [3] was at least 80%.
Turning to `O=C(NCCCCl)NCc1ccc(-c2noc(C(F)(F)F)n2)cn1` [Compound 3.19], the pest or weed control at 200 ppm in experiment [2] is at least 80%.
With `CCCCNC(=O)NCc1ccc(-c2noc(C(F)(F)F)n2)cn1` [Compound 3.20, 1-butyl-3-[[5-[5-(trifluoromethyl)-1,2,4-oxadiazol-3-yl]-2-pyridyl]methyl]urea], in experiment [2], the pest or weed control at 200 ppm was at least 80%. Also, in experiment [3], the inhibition of growth at 20 ppm is at least 80%.
